Reference: patent US20250340911A1, “METHOD FOR PRODUCING FROM FATTY ALCOHOLS MONOMERS FOR PRODUCING VARIOUS SYNTHETIC RESINS” (priority 2022, published 2025)

Tested on: recombinant Candida tropicalis Ct6 strain
Assay: Cytotoxicity of synthesized (biomass-derived) dialkyl ethers to recombinant strain, growth by absorbance at 600 nm
Format: cell-based
Conditions: 0-5% ether in YPD medium, 48-well plate, 24 hours or more, ether synthesized in Example 1
Description: The cytotoxicity of the dioctyl ether synthesized as described above was analyzed. 200 μl of a mixed solution of YPD medium (10 g/L yeast extract, 20 g/L Bacto peptone, 20 g/L glucose) and each concentration (0, 0.25, 0.5, 1, 2, 3, 4, or 5%) of dioctyl ether was added to each well of a 48-well plate. After 2 μl of a culture of a recombinant Candida tropicalis Ct6 strain cultured overnight in YPD medium at 30° C. and 200 rpm was further added to each well, the absorbance at 600 nm was measured using a plate reader at 30° C. for 24 hours or more at 15-minute intervals. The maximum specific growth rate (μm) and lag time were calculated using the Gompertz growth equation.
The cytotoxicity of the didodecyl ether synthesized as described above was analyzed. 200 μl of a mixed solution of YPD medium and each concentration (0, 0.25, 0.5, 1, 2, 3, 4, or 5%) of didodecyl ether was added to each well of a 48-well plate. After 2 μl of a culture of a recombinant Candida tropicalis Ct6 strain cultured overnight in YPD medium at 30° C. and 200 rpm was further added to each well, the absorbance at 600 nm was measured using a plate reader at 33° C. for 24 hours or more at 15-minute intervals. The maximum specific growth rate and lag time were calculated using the Gompertz growth equation.

| SMILES | cytotoxicity (maximum specific growth rate and lag time, Gompertz growth equation) |
| --- | --- |
| CCCCCCCCOCCCCCCCC [Dioctyl ether, dioctyl ether] | almost no cytotoxicity |
| CCCCCCCCCCCCOCCCCCCCCCCCC [Didodecyl ether, didodecyl ether] | almost no cytotoxicity |
